{"source": "patent US10435405B2", "about": "“Pyrazolopyridine compounds and uses thereof” (Incyte Corporation, priority 2016, dated 2019)"}
{"molecular_target": "HPK1 (Homo sapiens (Human), UniProt Q92918)", "sequence (Q92918 1-346)": "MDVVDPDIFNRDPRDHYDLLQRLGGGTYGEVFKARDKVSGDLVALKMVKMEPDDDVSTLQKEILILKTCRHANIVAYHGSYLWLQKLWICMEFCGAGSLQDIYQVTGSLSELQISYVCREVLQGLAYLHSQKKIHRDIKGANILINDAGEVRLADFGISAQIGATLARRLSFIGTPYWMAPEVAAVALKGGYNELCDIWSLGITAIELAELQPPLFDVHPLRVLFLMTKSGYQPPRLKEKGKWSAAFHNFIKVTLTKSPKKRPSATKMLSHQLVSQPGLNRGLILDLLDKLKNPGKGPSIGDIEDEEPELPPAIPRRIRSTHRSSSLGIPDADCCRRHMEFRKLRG", "assay": "HPK1 Kinase Binding Assay", "method": "A stock solution of 1 mM test compound was prepared in DMSO. The compound plate was prepared by 3-fold and 11-point serial dilutions. 0.1 μL of the compound in DMSO was transferred from the compound plate to the white 384 well polystyrene plates. The assay buffer contained 50 mM HEPES, pH 7.5, 0.01% Tween-20, 5 mM MgCl2, 0.01% BSA, and 5 mM DTT. 5 μl of 4 nM active HPK1 (SignalChem M23-11G) prepared in the buffer was added to the plate. The enzyme concentration given was based on the given stock concentration reported by the vender. 5 μl of 18 nM tracer 222 (ThermoFisher PV6121) and 4 nM LanthaScreen Eu-Anti GST antibody (ThermoFisher PV5595) were added. After one hour incubation at 25° C., the plates were read on a PHERAstar FS plate reader (BMG Labtech). Ki values were determined.", "units": {"Ki": "nM"}}
{"smiles": "COc1cccc(F)c1-c1cc2c(C(=O)Nc3ccc(N4CCOCC4)cc3)n[nH]c2cn1", "note": "[Example 55, 5-(2-Fluoro-6-methoxyphenyl)-N-(4-morpholinophenyl)-1H-pyrazolo[3,4-c]pyridine-3-carboxamide]", "Ki": "≤ 100"}
{"smiles": "CCN1CCN(c2ccc(NC(=O)c3n[nH]c4cnc(-c5c(F)cccc5OC)cc34)cc2)CC1", "note": "[Example 56, N-(4-(4-Ethylpiperazin-1-yl)phenyl)-5-(2-fluoro-6-methoxyphenyl)-1H-pyrazolo[3,4-c]pyridine-3-carboxamide]", "Ki": "≤ 100"}
{"smiles": "COCCNC(=O)c1cc(F)c(-c2cc3c(-c4cnn(C)c4)n[nH]c3cn2)c(F)c1", "note": "[Example 57, 3,5-Difluoro-N-(2-methoxyethyl)-4-(3-(1-methyl-1H-pyrazol-4-yl)-1H-pyrazolo[3,4-c]pyridin-5-yl)benzamide]", "Ki": "≤ 100"}
{"smiles": "COC1CN(C(=O)c2cc(F)c(-c3cc4c(-c5cnn(C)c5)n[nH]c4cn3)c(F)c2)C1", "note": "[Example 58, (3,5-Difluoro-4-(3-(1-methyl-1H-pyrazol-4-yl)-1H-pyrazolo[3,4-c]pyridin-5-yl)phenyl)(3-methoxyazetidin-1-yl)methanone]", "Ki": "≤ 100"}
{"smiles": "Cn1cc(-c2n[nH]c3cnc(-c4c(F)ccc(NC(=O)C5CCC5)c4F)cc23)cn1", "note": "[Example 59, N-(2,4-Difluoro-3-(3-(1-methyl-1H-pyrazol-4-yl)-1H-pyrazolo[3,4-c]pyridin-5-yl)phenyl)cyclobutanecarboxamide]", "Ki": "≤ 100"}
{"smiles": "Cn1cc(-c2n[nH]c3cnc(-c4c(F)ccc(NC(=O)Cc5ccccc5)c4F)cc23)cn1", "note": "[Example 60, N-(2,4-Difluoro-3-(3-(1-methyl-1H-pyrazol-4-yl)-1H-pyrazolo[3,4-c]pyridin-5-yl)phenyl)-2-phenylacetamide]", "Ki": "≤ 100"}
{"smiles": "CNc1ccc(F)c(-c2cc3c(-c4cnn(C)c4)n[nH]c3cn2)c1F", "note": "[Example 61, 2,4-Difluoro-N-methyl-3-(3-(1-methyl-1H-pyrazol-4-yl)-1H-pyrazolo[3,4-c]pyridin-5-yl)aniline]", "Ki": "≤ 100"}
{"smiles": "CN(C)c1ccc(F)c(-c2cc3c(-c4cnn(C)c4)n[nH]c3cn2)c1F", "note": "[Example 62, 2,4-Difluoro-N,N-dimethyl-3-(3-(1-methyl-1H-pyrazol-4-yl)-1H-pyrazolo[3,4-c]pyridin-5-yl)aniline]", "Ki": "≤ 100"}
{"smiles": "CN(C)c1cc(F)c(-c2cc3c(-c4cnn(C)c4)n[nH]c3cn2)c(F)c1", "note": "[Example 63, 3,5-Difluoro-N,N-dimethyl-4-(3-(1-methyl-1H-pyrazol-4-yl)-1H-pyrazolo[3,4-c]pyridin-5-yl)aniline]", "Ki": "≤ 100"}
{"smiles": "Cn1cc(-c2n[nH]c3cnc(-c4c(F)cc(NC(=O)CN5CCCC5)cc4F)cc23)cn1", "note": "[Example 64, N-(3,5-Difluoro-4-(3-(1-methyl-1H-pyrazol-4-yl)-1H-pyrazolo[3,4-c]pyridin-5-yl)phenyl)-2-(pyrrolidin-1-yl)acetamide]", "Ki": "≤ 100"}
{"smiles": "Cn1cc(C(=O)Nc2cc(F)c(-c3cc4c(-c5cnn(C)c5)n[nH]c4cn3)c(F)c2)cn1", "note": "[Example 65, N-(3,5-Difluoro-4-(3-(1-methyl-1H-pyrazol-4-yl)-1H-pyrazolo[3,4-c]pyridin-5-yl)phenyl)-1-methyl-1H-pyrazole-4-carboxamide]", "Ki": "≤ 100"}
{"smiles": "Cn1cc(-c2n[nH]c3cnc(-c4c(F)cc(NC(=O)CC5CCCC5)cc4F)cc23)cn1", "note": "[Example 66, 2-Cyclopentyl-N-(3,5-difluoro-4-(3-(1-methyl-1H-pyrazol-4-yl)-1H-pyrazolo[3,4-c]pyridin-5-yl)phenyl)acetamide]", "Ki": "≤ 100"}
{"smiles": "Cn1cc(-c2n[nH]c3cnc(-c4c(F)cc(NC(=O)Cc5cccnc5)cc4F)cc23)cn1", "note": "[Example 67, N-(3,5-Difluoro-4-(3-(1-methyl-1H-pyrazol-4-yl)-1H-pyrazolo[3,4-c]pyridin-5-yl)phenyl)-2-(pyridin-3-yl)acetamide]", "Ki": "≤ 100"}
{"smiles": "Cn1cc(-c2n[nH]c3cnc(-c4c(F)cc(NC(=O)CN5C6CCC5CC6)cc4F)cc23)cn1", "note": "[Example 68, 2-(7-Azabicyclo[2.2.1]heptan-7-yl)-N-(3,5-difluoro-4-(3-(1-methyl-1H-pyrazol-4-yl)-1H-pyrazolo[3,4-c]pyridin-5-yl)phenyl)acetamide]", "Ki": "≤ 100"}
{"smiles": "Cn1cc(-c2n[nH]c3cnc(-c4c(F)cc(NC(=O)CN5CC6(CCOCC6)C5)cc4F)cc23)cn1", "note": "[Example 69, N-(3,5-Difluoro-4-(3-(1-methyl-1H-pyrazol-4-yl)-1H-pyrazolo[3,4-c]pyridin-5-yl)phenyl)-2-(7-oxa-2-azaspiro[3.5]nonan-2-yl)acetamide]", "Ki": "≤ 100"}
{"smiles": "CC(C(=O)Nc1cc(F)c(-c2cc3c(-c4cnn(C)c4)n[nH]c3cn2)c(F)c1)N1CCCC1", "note": "(stereo not shown) [Example 70, N-(3,5-Difluoro-4-(3-(1-methyl-1H-pyrazol-4-yl)-1H-pyrazolo[3,4-c]pyridin-5-yl)phenyl)-2-(pyrrolidin-1-yl)propanamide]", "Ki": "≤ 100"}
{"smiles": "COCCNC(=O)Nc1cc(F)c(-c2cc3c(-c4cnn(C)c4)n[nH]c3cn2)c(F)c1", "note": "[Example 71, 1-(3,5-Difluoro-4-(3-(1-methyl-1H-pyrazol-4-yl)-1H-pyrazolo[3,4-c]pyridin-5-yl)phenyl)-3-(2-methoxyethyl)urea]", "Ki": "≤ 100"}
{"smiles": "Cn1cc(-c2n[nH]c3cnc(-c4c(F)cc(NC(=O)CN5CCC5)cc4OC(F)F)cc23)cn1", "note": "[Example 72, 2-(Azetidin-1-yl)-N-(3-(difluoromethoxy)-5-fluoro-4-(3-(1-methyl-1H-pyrazol-4-yl)-1H-pyrazolo[3,4-c]pyridin-5-yl)phenyl)acetamide]", "Ki": "≤ 100"}
{"smiles": "Cn1cc(-c2n[nH]c3cnc(-c4c(F)cc(NC(=O)CN5CCCC5)cc4Cl)cc23)cn1", "note": "[Example 73, N-(3-Chloro-5-fluoro-4-(3-(1-methyl-1H-pyrazol-4-yl)-1H-pyrazolo[3,4-c]pyridin-5-yl)phenyl)-2-(pyrrolidin-1-yl)acetamide]", "Ki": "≤ 100"}
{"smiles": "COc1cc(NC(=O)CN2CCCC2)cc(F)c1-c1cc2c(-c3cnn(C)c3)n[nH]c2cn1", "note": "[Example 74, N-(3-Fluoro-5-methoxy-4-(3-(1-methyl-1H-pyrazol-4-yl)-1H-pyrazolo[3,4-c]pyridin-5-yl)phenyl)-2-(pyrrolidin-1-yl)acetamide]", "Ki": "≤ 100"}
{"smiles": "COc1cc(NC(=O)CN2CC(C)(C)C2)cc(F)c1-c1cc2c(-c3cnn(C)c3)n[nH]c2cn1", "note": "[Example 75, 2-(3,3-Dimethylazetidin-1-yl)-N-(3-fluoro-5-methoxy-4-(3-(1-methyl-1H-pyrazol-4-yl)-1H-pyrazolo[3,4-c]pyridin-5-yl)phenyl)acetamide]", "Ki": "≤ 100"}
{"smiles": "COc1cc(NC(=O)OC2CCN(C)CC2)cc(F)c1-c1cc2c(-c3cnn(C)c3)n[nH]c2cn1", "note": "[Example 76, 1-Methylpiperidin-4-yl 3-fluoro-5-methoxy-4-(3-(1-methyl-1H-pyrazol-4-yl)-1H-pyrazolo[3,4-c]pyridin-5-yl)phenylcarbamate]", "Ki": "≤ 100"}
{"smiles": "Cn1cc(-c2n[nH]c3cnc(-c4c(F)cc(NC(=O)CN5CCC5)c(F)c4F)cc23)cn1", "note": "[Example 77, 2-(Azetidin-1-yl)-N-(2,3,5-trifluoro-4-(3-(1-methyl-1H-pyrazol-4-yl)-1H-pyrazolo[3,4-c]pyridin-5-yl)phenyl)acetamide]", "Ki": "≤ 100"}
{"smiles": "Cc1cc(NC(=O)CN(C)C)cc(Cl)c1-c1cc2c(-c3cnn(C)c3)n[nH]c2cn1", "note": "[Example 78, N-(3-Chloro-5-methyl-4-(3-(1-methyl-1H-pyrazol-4-yl)-1H-pyrazolo[3,4-c]pyridin-5-yl)phenyl)-2-(dimethylamino)acetamide]", "Ki": "≤ 100"}
{"smiles": "Cc1cc(NC(=O)CN2C[C@H]3CC[C@@H]2C3)ccc1-c1cc2c(-c3cnn(C)c3)n[nH]c2cn1", "note": "[Example 79, 2-((1R,4S)-2-Azabicyclo[2.2.1]heptan-2-yl)-N-(3-methyl-4-(3-(1-methyl-1H-pyrazol-4-yl)-1H-pyrazolo[3,4-c]pyridin-5-yl)phenyl)acetamide]", "Ki": "≤ 100"}
{"smiles": "Cc1cc(NC(=O)CN2CCCC2)cc(F)c1-c1cc2c(-c3cnn(C)c3)n[nH]c2cn1", "note": "[Example 80, N-(3-Fluoro-5-methyl-4-(3-(1-methyl-1H-pyrazol-4-yl)-1H-pyrazolo[3,4-c]pyridin-5-yl)phenyl)-2-(pyrrolidin-1-yl)acetamide]", "Ki": "≤ 100"}
{"smiles": "Cc1cc(NC(=O)CN(C)C)cc(F)c1-c1cc2c(-c3cnn(C)c3)n[nH]c2cn1", "note": "[Example 81, 2-(Dimethylamino)-N-(3-fluoro-5-methyl-4-(3-(1-methyl-1H-pyrazol-4-yl)-1H-pyrazolo[3,4-c]pyridin-5-yl)phenyl)acetamide]", "Ki": "≤ 100"}
{"smiles": "Cc1cc(NC(=O)CN2C3CCC2CC3)cc(F)c1-c1cc2c(-c3cnn(C)c3)n[nH]c2cn1", "note": "[Example 82, 2-(7-Azabicyclo[2.2.1]heptan-7-yl)-N-(3-fluoro-5-methyl-4-(3-(1-methyl-1H-pyrazol-4-yl)-1H-pyrazolo[3,4-c]pyridin-5-yl)phenyl)acetamide]", "Ki": "≤ 100"}
{"smiles": "Cc1cc(NC(=O)CN2C[C@H]3CC[C@@H]2C3)cc(F)c1-c1cc2c(-c3cnn(C)c3)n[nH]c2cn1", "note": "[Example 83, 2-((1R,4S)-2-Azabicyclo[2.2.1]heptan-2-yl)-N-(3-fluoro-5-methyl-4-(3-(1-methyl-1H-pyrazol-4-yl)-1H-pyrazolo[3,4-c]pyridin-5-yl)phenyl)acetamide]", "Ki": "≤ 100"}
{"smiles": "Cc1cc(NC(=O)CCN(C)C)cc(F)c1-c1cc2c(-c3cnn(C)c3)n[nH]c2cn1", "note": "[Example 84, 3-(Dimethylamino)-N-(3-fluoro-5-methyl-4-(3-(1-methyl-1H-pyrazol-4-yl)-1H-pyrazolo[3,4-c]pyridin-5-yl)phenyl)propanamide]", "Ki": "≤ 100"}
{"smiles": "Cc1cc(NC(=O)CC#N)cc(F)c1-c1cc2c(-c3cnn(C)c3)n[nH]c2cn1", "note": "[Example 85, 2-Cyano-N-(3-fluoro-5-methyl-4-(3-(1-methyl-1H-pyrazol-4-yl)-1H-pyrazolo[3,4-c]pyridin-5-yl)phenyl)acetamide]", "Ki": "≤ 100"}
